Common to all, as to assay: relative viability (nuclei count vs DMSO), 5 days (fraction); higher = more cells survive
Compound in experiment [1]: O=C(C[C@H]1NCCC[C@@H]1O)Cn1cnc2cc(Br)c(Cl)cc2c1=O (racemic) [Halofuginone] + Cc1cc(Nc2cc(N3CCN(C)CC3)nc(Sc3ccc(NC(=O)C4CC4)cc3)n2)n[nH]1 [Tozasertib] (partner 0.1 µM)
A digest of the protocol: (§1)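 Dosing by pin tool came one day after lung cancer cell lines were seeded in 1536-well plates, using either one drug or a fixed anchor-drug dose plus five library-drug doses (not always all listed) in √10 steps. After 5 days, nuclei were counted on 4× images. Relative viability is treated-well nuclei count divided by vehicle-well nuclei count, and values are medians of duplicate plates.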

Compound in experiment [2]: O=C(C[C@H]1NCCC[C@@H]1O)Cn1cnc2cc(Br)c(Cl)cc2c1=O (racemic) [Halofuginone] + CC(=O)c1c(C)c2cnc(Nc3ccc(N4CCNCC4)cn3)nc2n(C2CCCC2)c1=O [Palbociclib] (partner 0.5 µM)
The method, boiled down: as §1

Compound in experiment [3]: O=C(C[C@H]1NCCC[C@@H]1O)Cn1cnc2cc(Br)c(Cl)cc2c1=O (racemic) [Halofuginone] + Cc1nc(NC(=O)N2CCC[C@H]2C(N)=O)sc1-c1ccnc(C(C)(C)C(F)(F)F)c1 [Alpelisib] (partner 2 µM)
The method, boiled down:
as §1

Compound in experiment [4]: COc1cc2c(Oc3ccc4[nH]c(C)cc4c3F)ncnc2cc1OCCCN1CCCC1 [Cediranib] + O=C(CCCCCCC(=O)Nc1ccccc1)NO [Vorinostat] (partner 1 µM)
The method, boiled down: as §1

For HARA, the relative viability in experiment [1] (first compound 0.001 µM) is 0.116; in experiment [1] (first compound 0.003162 µM), 0.118; in experiment [1] (first compound 0.01 µM) it was 0.105; in experiment [1] (first compound 0.03162 µM) it was 0.105; in experiment [1] (first compound 0.1 µM), 0.0853; in experiment [2] (first compound 0.001 µM), 0.382. Also, the relative viability in experiment [2] (first compound 0.003162 µM) is 0.266; in experiment [2] (first compound 0.01 µM), 0.234; in experiment [2] (first compound 0.03162 µM), 0.264; in experiment [2] (first compound 0.1 µM) it was 0.216; in experiment [3] (first compound 0.001 µM), 1.05; in experiment [3] (first compound 0.003162 µM) it was 0.817. Also, the relative viability in experiment [3] (first compound 0.01 µM) came to 0.836; in experiment [3] (first compound 0.03162 µM), 0.839; in experiment [3] (first compound 0.1 µM) it was 0.743; in experiment [4] (first compound 0.04 µM), 0.549; in experiment [4] (first compound 0.1265 µM) it was 0.315; in experiment [4] (first compound 0.4 µM) it was 0.489. Besides, the results for the relative viability in experiment [4] (first compound 1.265 µM) and in experiment [4] (first compound 4 µM) were 0.64 and 0.519, respectively.
Take HCC-15: the relative viability in experiment [1] (first compound 0.001 µM) is 0.47; in experiment [1] (first compound 0.003162 µM) it was 0.461; in experiment [1] (first compound 0.01 µM), 0.394; in experiment [1] (first compound 0.03162 µM), 0.43; in experiment [1] (first compound 0.1 µM) it was 0.239; in experiment [2] (first compound 0.001 µM), 0.802. Besides, the relative viability in experiment [2] (first compound 0.003162 µM) is 0.823; in experiment [2] (first compound 0.01 µM), 0.731; in experiment [2] (first compound 0.03162 µM), 0.713; in experiment [2] (first compound 0.1 µM) it was 0.65; in experiment [3] (first compound 0.001 µM), 0.847; in experiment [3] (first compound 0.003162 µM) it was 0.903. Further, the relative viability in experiment [3] (first compound 0.01 µM) worked out at 0.861; in experiment [3] (first compound 0.03162 µM), 0.888; in experiment [3] (first compound 0.1 µM) it was 0.683; in experiment [4] (first compound 0.04 µM) it was 0.814; in experiment [4] (first compound 0.4 µM), 0.821; in experiment [4] (first compound 1.265 µM) it was 0.907. In experiment [4] (first compound 4 µM), the relative viability was determined as 0.916.
As for HCC-44, the relative viability in experiment [1] (first compound 0.001 µM) was 1.16; in experiment [1] (first compound 0.003162 µM), 0.994; in experiment [1] (first compound 0.01 µM), 1; in experiment [1] (first compound 0.03162 µM), 0.824; in experiment [1] (first compound 0.1 µM) it was 0.17; in experiment [2] (first compound 0.001 µM) it was 0.976. Besides, the relative viability in experiment [2] (first compound 0.003162 µM) came out at 0.964; in experiment [2] (first compound 0.01 µM), 0.962; in experiment [2] (first compound 0.03162 µM), 0.932; in experiment [2] (first compound 0.1 µM) it was 0.966; in experiment [3] (first compound 0.001 µM), 0.804; in experiment [3] (first compound 0.003162 µM), 0.774. Further, the relative viability in experiment [3] (first compound 0.01 µM) stood at 0.691; in experiment [3] (first compound 0.03162 µM), 0.797; in experiment [3] (first compound 0.1 µM), 0.433; in experiment [4] (first compound 0.04 µM) it was 1.14; in experiment [4] (first compound 0.1265 µM) it was 0.94; in experiment [4] (first compound 0.4 µM), 1.07. Moreover, the relative viability came to 1.1 in experiment [4] (first compound 1.265 µM) and 1.11 in experiment [4] (first compound 4 µM).
Turning to HCC-78, the relative viability stood at 0.491 in experiment [1] (first compound 0.001 µM); 0.422 in experiment [1] (first compound 0.003162 µM); 0.503 in experiment [1] (first compound 0.01 µM); 0.347 in experiment [1] (first compound 0.03162 µM); 0.427 in experiment [1] (first compound 0.1 µM); 0.516 in experiment [2] (first compound 0.001 µM). The relative viability in experiment [2] (first compound 0.003162 µM) was found to be 0.519; in experiment [2] (first compound 0.01 µM), 0.497; in experiment [2] (first compound 0.03162 µM) it was 0.488; in experiment [2] (first compound 0.1 µM), 0.551; in experiment [3] (first compound 0.001 µM) it was 0.409; in experiment [3] (first compound 0.003162 µM), 0.327. The relative viability in experiment [3] (first compound 0.01 µM) is 0.299; in experiment [3] (first compound 0.03162 µM), 0.374; in experiment [3] (first compound 0.1 µM), 0.215; in experiment [4] (first compound 0.04 µM), 0.45; in experiment [4] (first compound 0.1265 µM), 0.367; in experiment [4] (first compound 0.4 µM), 0.443. Also, the relative viability is 0.499 in experiment [4] (first compound 1.265 µM) and 0.49 in experiment [4] (first compound 4 µM).

Source of the values: the supplement of paper PMC10307832.
